Experimental data taken from US11111230B2 (ADLAI NORTYE BIOPHARMA CO., LTD., priority 2017, dated 2021).

Columns and labels:
Hela cells = test: Activity in Hela cells (interferon-γ induced, kynurenine readout with Ehrlich's reagent); assay type: cell-based; conditions: Homo sapiens, interferon-γ 50 ng/mL, tryptophan 16 mg/L, 48 hours, absorption at 480 nm
Protocol: Example 1: Study on the Activity of the Compound of the Present Invention in Hela Cells
Hela cells were seeded in 96-well culture plates and incubated at 37° C., 100% relative humidity, 5% CO2 incubator for 24 hours. The compound was dissolved in DMSO and diluted to an appropriate concentration, and then the compound was diluted 100-fold with DMEM medium containing interferon-γ and 10% fetal bovine serum to the final concentration of effect. Aspirate the old medium from the 96-well plate and add 200 μL of each medium containing compound and interferon-γ from the previous step. The content of tryptophan in the medium is 16 mg/L, and the concentration of interferon-γ is 50 ng/mL. The cells were placed in a 37° C., 100% relative humidity, and 5% CO2 incubator for 48 hours, then 140 μL of the cell culture supernatant was mixed with 15 μL of trichloroacetic acid, and placed at 52° C. for 30 min, then centrifuged at room temperature to take the centrifugal supernatant. Mix with an equal volume of Ehrlich's reagent, measure the light absorption at 480 nm, and calculate the IC50 values.

human IDO1 protein = target: T1, human IDO1 protein (Homo sapiens, UniProt P14902); test: Activity in HEK293 cells highly expressing human IDO1 protein; assay type: cell-based; conditions: HEK293-IDO cells, tryptophan 16 mg/L, 24 hours, absorption at 480 nm; read-out: IC50 (HEK293 cell)
T1 construct: expressed in transfected cells; host or cells: HEK293
T1 sequence (P14902 whole entry): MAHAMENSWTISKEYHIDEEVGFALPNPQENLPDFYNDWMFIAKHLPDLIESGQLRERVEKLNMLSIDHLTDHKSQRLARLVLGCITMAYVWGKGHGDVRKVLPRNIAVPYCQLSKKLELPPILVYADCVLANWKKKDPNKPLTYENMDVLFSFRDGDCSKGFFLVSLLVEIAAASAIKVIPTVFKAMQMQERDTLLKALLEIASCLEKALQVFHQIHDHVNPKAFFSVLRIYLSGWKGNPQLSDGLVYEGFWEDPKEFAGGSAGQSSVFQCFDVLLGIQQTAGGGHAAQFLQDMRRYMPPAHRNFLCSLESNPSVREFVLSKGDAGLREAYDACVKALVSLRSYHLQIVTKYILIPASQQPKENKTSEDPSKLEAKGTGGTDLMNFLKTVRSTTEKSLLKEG
Protocol: Example 2: Study on the Activity of the Present Invention in HEK293 Cells Highly Expressing Human IDO1 Protein
HEK293-IDO cells with high expression of human IDO1 protein were prepared by electrotransformation, and the cells were seeded in 96-well culture plates, and cultured at 37° C., 100% relative humidity, and 5% CO2 incubator for 24 hours. Dissolve in DMSO and dilute to the appropriate concentration, then use DMEM medium containing 10% fetal bovine serum to dilute the candidate 100-fold to the final concentration. Aspirate the old medium from the 96-well plate and add 200 μL of the medium contained in the previous step to each well. The content of tryptophan in the medium is 16 mg/L. The cells were placed in a 37° C., 100% relative humidity, and 5% CO2 incubator for 24 hours. 140 μL of the cell culture supernatant was mixed with 15 μL of trichloroacetic acid and placed at 52° C. for 30 min. Mix with an equal volume of Ehrlich's reagent, measure the light absorption at 480 nm, and calculate the IC50 values.

SMILES	IC50 (Hela cells) [nM]	IC50 (human IDO1 protein) [nM]
COCCOc1ccc(NC(=O)[C@@H]2C[C@]23CC[C@H](c2ccnc4cc(C)c(F)cc42)CC3)cc1 (single isomer, unassigned) [Compound 99]	> 100	> 100
O=C(Nc1ccc(Cl)cc1)C1CC12CCC(c1ccnc3cc(F)c(F)cc13)CC2 (centres unmarked) [Compound 100, N-(4-chlorophenyl)-6-(6,7-difluoroquinolin-4-yl)spiro[2.5]octane-1-carboxamide]	0.1 to 10	10 to 100
O=C(Nc1ccc(Cl)cc1)C1CC12CCC(c1ccnc3cc4c(cc13)OCO4)CC2 (centres unmarked) [Compound 110, 6-([1,3]dioxolo[4,5-g]quinolin-8-yl)-N-(4-chlorophenyl)spiro[2.5]octane-1-carboxamide]	10 to 100	> 100
O=C(Nc1ccc(Cl)c(F)c1)C1CC12CCC(c1ccnc3ccc(F)cc13)CC2 (centres unmarked) [Compound 12, N-(4-chloro-3-fluorophenyl)-6-(6-fluoroquinolin-4-yl)spiro[2.5]octane-1-carboxamide]	10 to 100	10 to 100
Cc1cc2nccc(C3CCC4(CC3)CC4C(=O)Nc3ccnc(Cl)c3)c2cc1F (centres unmarked) [Compound 97]	> 100	> 100
O=C(Nc1ccc(Cl)cc1)[C@@H]1CC12CCC(c1ccnc3ccc(F)cc13)CC2 (single isomer, unassigned) [Compound 10b]	> 100	> 100
O=C(Nc1ccc(Cl)cc1)C1CC12CCC(c1ccnc3ccc(F)cc13)CC2 (centres unmarked) [Compound 1, N-(4-chlorophenyl)-6-(6-fluoroquinolin-4-yl)spiro[2.5]octane-1-carboxamide]	0.1 to 10	10 to 100
O=C(Nc1ccc(Cl)cc1)C1CC12CCC(c1ccnc3cc(CO)c(F)cc13)CC2 (centres unmarked) [Compound 114, N-(4-chlorophenyl)-6-(6-fluoro-7-(hydroxymethyl)quinolin-4-yl)spiro[2.5]octane-1-carboxamide]	0.1 to 10	10 to 100
O=C(Nc1ccc(Cl)cc1)C1CC12CCC(c1ccnc3cc4c(cc13)OCCO4)CC2 (centres unmarked) [Compound 103, N-(4-chlorophenyl)-6-(2,3-dihydro-[1,4]dioxino[2,3-g]quinolin-9-yl)spiro[2.5]octane-1-carborboxamide]	> 100	> 100
COc1cc2nccc(C3CCC4(CC3)CC4C(=O)Nc3ccc(Cl)cc3)c2cc1OC (centres unmarked) [Compound 101]	0.1 to 10	10 to 100
Cc1cc2nccc([C@H]3CC[C@@]4(CC3)C[C@@H]4C(=O)Nc3ccc(Cl)cc3)c2cc1F (single isomer, unassigned) [Compound 92]	0.1 to 10	0.1 to 10
Cc1cc2nccc(C3CCC4(CC3)CC4C(=O)Nc3ccc(OCCO)cc3)c2cc1F (centres unmarked) [Compound 112, 6-(6-fluoro-7-methylquinolin-4-yl)-N-(4-(2-hydroxyethoxy)phenyl)spiro[2.5]octane-1-carboxamide]	10 to 100	> 100
O=C(NCc1ccc(Cl)cc1)C1CC12CCC(c1ccnc3ccc(F)cc13)CC2 (centres unmarked) [Compound 3, N-(4-chlorobenzyl)-6-(6-fluoroquinolin-4-yl)spiro[2.5]octane-1-carboxamide]	> 100	> 100
O=C(Nc1ccc(Cl)cn1)C1CC12CCC(c1ccnc3ccc(F)cc13)CC2 (centres unmarked) [Compound 8, N-(5-chloropyridin-2-yl)-6-(6-fluoroquinolin-4-yl)spiro[2.5]octane-1-carboxamide]	10 to 100	10 to 100
O=C(Nc1ccc(Cl)s1)C1CC12CCC(c1ccnc3ccc(F)cc13)CC2 (centres unmarked) [Compound 13, N-(5-chlorothiophen-2-yl)-6-(6-fluoroquinolin-4-yl)spiro[2.5]octane-1-carboxamide]	10 to 100	10 to 100
O=C(NCCc1ccc(Cl)cc1)C1CC12CCC(c1ccnc3ccc(F)cc13)CC2 (centres unmarked) [Compound 4, N-(4-chlorophenethyl)-6-(6-fluoroquinolin-4-yl)spiro[2.5]octane-1-carboxamide]	> 100	> 100
COCCOc1ccc(NC(=O)[C@H]2C[C@]23CC[C@H](c2ccnc4cc(C)c(F)cc42)CC3)cc1 (single isomer, unassigned) [Compound 98]	0.1 to 10	0.1 to 10
COCCOc1ccc(NC(=O)C2CC23CCC(c2ccnc4cc(OC)c(OC)cc24)CC3)cc1 (centres unmarked) [Compound 113, 6-(6,7-dimethoxyquinolin-4-yl)-N-(4-(2-methoxyethoxy)phenyl)spiro[2.5]octane-1-carboxamide]	0.1 to 10	10 to 100
N#Cc1cc2nccc(C3CCC4(CC3)CC4C(=O)Nc3ccc(Cl)cc3)c2cc1F (centres unmarked) [Compound 102, N-(4-chlorophenyl)-6-(7-cyano-6-fluoroquinolin-4-yl)spiro[2.5]octane-1-carboxamide]	0.1 to 10	10 to 100
